From paper PMC9030254, “Target Hopping from Protein Kinases to PXR: Identification of Small-Molecule Protein Kinase Inhibitors as Selective Modulators of Pregnane X Receptor from TüKIC Library” (Cells, 2022)

Assays:
Assay in all cases: Kinase profiling
Format in all cases: biochemical
[1] = target: T1, CDK13/CycK (Homo sapiens, UniProt Q14004)
T1 construct: purchased ProQinase (Freiburg, Germany)
Experimental: (§1) The analysis was performed by ProQinase (Freiburg, Germany).

[2] = target: T2, CDK4/CycD2 (Homo sapiens, UniProt P11802)
T2 construct: purchased ProQinase (Freiburg, Germany)
Experimental: as §1

[3] = target: T3, LIMK1 (Homo sapiens, UniProt P53667)
T3 construct: purchased ProQinase (Freiburg, Germany)
Experimental: as §1

[4] = target: T4, CDK16/CycY (Homo sapiens, UniProt Q00536)
T4 construct: purchased ProQinase (Freiburg, Germany)
Experimental: as §1

[5] = target: T5, CDC42BPB (Homo sapiens, UniProt Q9Y5S2)
T5 construct: purchased ProQinase (Freiburg, Germany)
Experimental: as §1

[6] = target: T6, PAK3 (Homo sapiens, UniProt O75914)
T6 construct: purchased ProQinase (Freiburg, Germany)
Experimental: as §1

[7] = target: T7, EPHA6 (Homo sapiens, UniProt Q9UF33)
T7 construct: purchased ProQinase (Freiburg, Germany)
T7 sequence (Q9UF33 23-1036): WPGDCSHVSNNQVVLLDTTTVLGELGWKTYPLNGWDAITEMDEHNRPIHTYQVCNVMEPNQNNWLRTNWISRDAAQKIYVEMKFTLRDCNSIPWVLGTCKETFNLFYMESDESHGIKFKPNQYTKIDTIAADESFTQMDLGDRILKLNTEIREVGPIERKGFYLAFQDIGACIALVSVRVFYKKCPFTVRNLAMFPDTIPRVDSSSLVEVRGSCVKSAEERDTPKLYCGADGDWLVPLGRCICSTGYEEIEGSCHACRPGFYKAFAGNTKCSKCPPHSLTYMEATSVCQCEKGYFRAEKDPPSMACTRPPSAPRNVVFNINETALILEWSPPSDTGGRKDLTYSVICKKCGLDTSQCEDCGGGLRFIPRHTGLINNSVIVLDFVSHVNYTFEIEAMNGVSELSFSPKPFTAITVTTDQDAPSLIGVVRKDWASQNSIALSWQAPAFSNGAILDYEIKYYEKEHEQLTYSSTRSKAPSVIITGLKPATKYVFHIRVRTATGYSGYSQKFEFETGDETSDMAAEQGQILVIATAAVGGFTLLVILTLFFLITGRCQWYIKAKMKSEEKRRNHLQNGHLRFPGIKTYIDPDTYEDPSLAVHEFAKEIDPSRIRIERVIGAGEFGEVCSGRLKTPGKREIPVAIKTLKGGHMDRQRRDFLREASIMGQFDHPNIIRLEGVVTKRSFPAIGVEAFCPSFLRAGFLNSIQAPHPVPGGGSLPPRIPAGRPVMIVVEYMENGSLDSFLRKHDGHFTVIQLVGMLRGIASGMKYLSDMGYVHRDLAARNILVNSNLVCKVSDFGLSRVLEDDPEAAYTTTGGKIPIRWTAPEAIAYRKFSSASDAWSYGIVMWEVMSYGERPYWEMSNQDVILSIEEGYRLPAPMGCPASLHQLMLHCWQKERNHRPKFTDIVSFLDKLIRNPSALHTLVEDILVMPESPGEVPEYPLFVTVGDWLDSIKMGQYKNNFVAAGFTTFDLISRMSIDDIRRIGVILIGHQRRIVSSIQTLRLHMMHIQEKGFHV
Experimental: as §1

[8] = target: T8, PKCtheta (Homo sapiens, UniProt Q04759)
T8 construct: purchased ProQinase (Freiburg, Germany)
Experimental: as §1

[9] = target: T9, RPS6KA2 (Homo sapiens, UniProt Q15349)
T9 construct: purchased ProQinase (Freiburg, Germany)
Experimental: as §1

[10] = target: T10, JNK1 (Homo sapiens, UniProt P45983)
T10 construct: purchased ProQinase (Freiburg, Germany)
Experimental: as §1

[11] = target: T11, p38gamma (Homo sapiens, UniProt P53778)
T11 construct: purchased ProQinase (Freiburg, Germany)
T11 sequence (P53778 1-367): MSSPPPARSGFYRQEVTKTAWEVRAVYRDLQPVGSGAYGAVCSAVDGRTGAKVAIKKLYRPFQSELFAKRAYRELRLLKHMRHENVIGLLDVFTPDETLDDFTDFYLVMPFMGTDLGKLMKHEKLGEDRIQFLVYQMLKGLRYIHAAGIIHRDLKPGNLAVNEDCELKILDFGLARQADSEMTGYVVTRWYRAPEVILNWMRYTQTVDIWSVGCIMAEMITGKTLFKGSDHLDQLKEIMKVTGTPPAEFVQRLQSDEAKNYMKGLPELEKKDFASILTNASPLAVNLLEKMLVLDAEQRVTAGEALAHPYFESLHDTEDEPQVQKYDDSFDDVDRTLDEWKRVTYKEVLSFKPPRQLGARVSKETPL
Experimental: as §1

[12] = target: T12, p38beta (Homo sapiens, UniProt Q15759); details: for inhibition at 10 µM: read-out: inhibition of p38β
T12 construct: purchased ProQinase (Freiburg, Germany)
Experimental: as §1

[13] = target: T13, MAPKAPK2 (Homo sapiens, UniProt P49137)
T13 construct: purchased ProQinase (Freiburg, Germany)
Experimental: as §1

[14] = target: T14, STK17A (Homo sapiens, UniProt Q9UEE5)
T14 construct: purchased ProQinase (Freiburg, Germany)
T14 sequence (Q9UEE5 1-414): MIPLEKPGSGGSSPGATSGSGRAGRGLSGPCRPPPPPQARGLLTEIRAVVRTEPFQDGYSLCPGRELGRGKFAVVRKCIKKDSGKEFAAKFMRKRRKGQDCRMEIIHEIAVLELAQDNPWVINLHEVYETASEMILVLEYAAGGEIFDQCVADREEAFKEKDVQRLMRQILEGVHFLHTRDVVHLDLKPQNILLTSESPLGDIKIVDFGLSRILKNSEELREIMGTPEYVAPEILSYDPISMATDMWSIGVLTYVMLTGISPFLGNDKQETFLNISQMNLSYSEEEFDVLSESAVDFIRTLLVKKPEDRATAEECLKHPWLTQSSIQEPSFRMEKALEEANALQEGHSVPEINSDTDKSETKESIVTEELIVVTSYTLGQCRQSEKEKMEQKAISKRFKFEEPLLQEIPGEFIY
Experimental: as §1

[15] = target: T15, CDC42BPA (Homo sapiens, UniProt Q5VT25)
T15 construct: purchased ProQinase (Freiburg, Germany)
Experimental: as §1

T10 sequence (P45983 whole entry): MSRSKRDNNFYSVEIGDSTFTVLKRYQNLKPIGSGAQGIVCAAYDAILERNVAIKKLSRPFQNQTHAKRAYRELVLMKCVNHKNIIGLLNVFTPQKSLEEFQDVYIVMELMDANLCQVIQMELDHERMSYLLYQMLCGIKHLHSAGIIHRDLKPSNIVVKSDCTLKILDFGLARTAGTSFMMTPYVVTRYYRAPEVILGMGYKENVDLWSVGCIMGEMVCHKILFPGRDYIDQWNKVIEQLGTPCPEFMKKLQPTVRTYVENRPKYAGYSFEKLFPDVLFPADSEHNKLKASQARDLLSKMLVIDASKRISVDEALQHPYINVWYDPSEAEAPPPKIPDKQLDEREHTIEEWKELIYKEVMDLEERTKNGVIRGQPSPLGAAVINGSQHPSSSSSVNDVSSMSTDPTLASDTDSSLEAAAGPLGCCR
T12 sequence (Q15759 whole entry): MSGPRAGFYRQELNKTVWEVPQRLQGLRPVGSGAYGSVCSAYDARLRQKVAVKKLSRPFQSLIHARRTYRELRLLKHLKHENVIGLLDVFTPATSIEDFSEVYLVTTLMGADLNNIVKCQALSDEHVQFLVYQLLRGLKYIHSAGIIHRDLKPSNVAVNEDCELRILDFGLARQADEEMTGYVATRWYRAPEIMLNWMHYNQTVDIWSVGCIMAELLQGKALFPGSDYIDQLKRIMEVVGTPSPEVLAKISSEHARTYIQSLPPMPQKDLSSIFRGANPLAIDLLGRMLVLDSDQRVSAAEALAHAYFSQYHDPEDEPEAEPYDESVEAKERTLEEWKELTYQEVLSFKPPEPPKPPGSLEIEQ
T2 sequence (P11802 whole entry): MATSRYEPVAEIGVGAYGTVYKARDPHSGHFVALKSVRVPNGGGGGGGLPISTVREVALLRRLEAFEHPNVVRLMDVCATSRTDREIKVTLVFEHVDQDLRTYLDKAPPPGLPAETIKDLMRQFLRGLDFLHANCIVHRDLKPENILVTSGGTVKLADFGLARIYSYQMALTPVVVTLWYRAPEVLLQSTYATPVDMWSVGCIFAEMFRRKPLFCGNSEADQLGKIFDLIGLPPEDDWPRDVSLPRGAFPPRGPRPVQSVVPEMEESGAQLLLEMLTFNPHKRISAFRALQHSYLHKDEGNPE
T2 sequence (P30279 whole entry partner): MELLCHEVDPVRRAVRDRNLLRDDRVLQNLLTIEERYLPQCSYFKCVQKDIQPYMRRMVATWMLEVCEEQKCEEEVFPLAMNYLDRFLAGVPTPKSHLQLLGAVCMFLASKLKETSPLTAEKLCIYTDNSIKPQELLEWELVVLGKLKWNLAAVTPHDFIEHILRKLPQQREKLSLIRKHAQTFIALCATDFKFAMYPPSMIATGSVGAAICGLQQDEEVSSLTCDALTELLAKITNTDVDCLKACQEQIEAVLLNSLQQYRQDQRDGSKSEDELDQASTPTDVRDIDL
T6 sequence (O75914 whole entry): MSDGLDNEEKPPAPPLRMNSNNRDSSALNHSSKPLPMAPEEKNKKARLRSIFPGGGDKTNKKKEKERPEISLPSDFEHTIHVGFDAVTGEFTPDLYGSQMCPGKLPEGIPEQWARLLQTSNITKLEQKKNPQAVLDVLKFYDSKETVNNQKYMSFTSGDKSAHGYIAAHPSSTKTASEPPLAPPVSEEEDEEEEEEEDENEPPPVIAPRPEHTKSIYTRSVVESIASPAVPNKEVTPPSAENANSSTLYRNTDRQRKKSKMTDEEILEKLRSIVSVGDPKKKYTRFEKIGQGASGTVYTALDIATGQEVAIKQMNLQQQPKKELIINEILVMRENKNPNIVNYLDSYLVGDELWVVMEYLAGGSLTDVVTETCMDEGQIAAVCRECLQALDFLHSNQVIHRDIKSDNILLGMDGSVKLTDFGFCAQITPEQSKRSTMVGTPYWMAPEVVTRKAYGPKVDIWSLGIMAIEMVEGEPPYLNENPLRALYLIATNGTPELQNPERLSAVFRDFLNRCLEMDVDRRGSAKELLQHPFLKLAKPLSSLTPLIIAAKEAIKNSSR
T3 sequence (P53667 whole entry): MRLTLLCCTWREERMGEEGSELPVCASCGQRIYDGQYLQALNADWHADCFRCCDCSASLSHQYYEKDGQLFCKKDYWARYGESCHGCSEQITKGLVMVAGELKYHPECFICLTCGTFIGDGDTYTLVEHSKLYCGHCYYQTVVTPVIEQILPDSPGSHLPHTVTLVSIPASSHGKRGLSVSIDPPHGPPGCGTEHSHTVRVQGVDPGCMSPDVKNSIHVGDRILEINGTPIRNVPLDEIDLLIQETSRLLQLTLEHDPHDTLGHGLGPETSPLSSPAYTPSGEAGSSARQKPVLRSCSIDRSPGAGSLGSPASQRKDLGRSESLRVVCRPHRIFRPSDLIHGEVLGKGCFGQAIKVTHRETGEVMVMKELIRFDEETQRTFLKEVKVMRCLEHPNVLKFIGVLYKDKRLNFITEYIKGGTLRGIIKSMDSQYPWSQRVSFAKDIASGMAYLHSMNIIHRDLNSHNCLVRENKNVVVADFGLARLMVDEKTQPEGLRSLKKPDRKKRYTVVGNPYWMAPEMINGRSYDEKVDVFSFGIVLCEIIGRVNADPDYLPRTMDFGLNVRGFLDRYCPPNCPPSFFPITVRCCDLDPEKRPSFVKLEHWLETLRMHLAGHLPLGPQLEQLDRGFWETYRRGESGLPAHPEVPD
T15 sequence (Q5VT25 whole entry): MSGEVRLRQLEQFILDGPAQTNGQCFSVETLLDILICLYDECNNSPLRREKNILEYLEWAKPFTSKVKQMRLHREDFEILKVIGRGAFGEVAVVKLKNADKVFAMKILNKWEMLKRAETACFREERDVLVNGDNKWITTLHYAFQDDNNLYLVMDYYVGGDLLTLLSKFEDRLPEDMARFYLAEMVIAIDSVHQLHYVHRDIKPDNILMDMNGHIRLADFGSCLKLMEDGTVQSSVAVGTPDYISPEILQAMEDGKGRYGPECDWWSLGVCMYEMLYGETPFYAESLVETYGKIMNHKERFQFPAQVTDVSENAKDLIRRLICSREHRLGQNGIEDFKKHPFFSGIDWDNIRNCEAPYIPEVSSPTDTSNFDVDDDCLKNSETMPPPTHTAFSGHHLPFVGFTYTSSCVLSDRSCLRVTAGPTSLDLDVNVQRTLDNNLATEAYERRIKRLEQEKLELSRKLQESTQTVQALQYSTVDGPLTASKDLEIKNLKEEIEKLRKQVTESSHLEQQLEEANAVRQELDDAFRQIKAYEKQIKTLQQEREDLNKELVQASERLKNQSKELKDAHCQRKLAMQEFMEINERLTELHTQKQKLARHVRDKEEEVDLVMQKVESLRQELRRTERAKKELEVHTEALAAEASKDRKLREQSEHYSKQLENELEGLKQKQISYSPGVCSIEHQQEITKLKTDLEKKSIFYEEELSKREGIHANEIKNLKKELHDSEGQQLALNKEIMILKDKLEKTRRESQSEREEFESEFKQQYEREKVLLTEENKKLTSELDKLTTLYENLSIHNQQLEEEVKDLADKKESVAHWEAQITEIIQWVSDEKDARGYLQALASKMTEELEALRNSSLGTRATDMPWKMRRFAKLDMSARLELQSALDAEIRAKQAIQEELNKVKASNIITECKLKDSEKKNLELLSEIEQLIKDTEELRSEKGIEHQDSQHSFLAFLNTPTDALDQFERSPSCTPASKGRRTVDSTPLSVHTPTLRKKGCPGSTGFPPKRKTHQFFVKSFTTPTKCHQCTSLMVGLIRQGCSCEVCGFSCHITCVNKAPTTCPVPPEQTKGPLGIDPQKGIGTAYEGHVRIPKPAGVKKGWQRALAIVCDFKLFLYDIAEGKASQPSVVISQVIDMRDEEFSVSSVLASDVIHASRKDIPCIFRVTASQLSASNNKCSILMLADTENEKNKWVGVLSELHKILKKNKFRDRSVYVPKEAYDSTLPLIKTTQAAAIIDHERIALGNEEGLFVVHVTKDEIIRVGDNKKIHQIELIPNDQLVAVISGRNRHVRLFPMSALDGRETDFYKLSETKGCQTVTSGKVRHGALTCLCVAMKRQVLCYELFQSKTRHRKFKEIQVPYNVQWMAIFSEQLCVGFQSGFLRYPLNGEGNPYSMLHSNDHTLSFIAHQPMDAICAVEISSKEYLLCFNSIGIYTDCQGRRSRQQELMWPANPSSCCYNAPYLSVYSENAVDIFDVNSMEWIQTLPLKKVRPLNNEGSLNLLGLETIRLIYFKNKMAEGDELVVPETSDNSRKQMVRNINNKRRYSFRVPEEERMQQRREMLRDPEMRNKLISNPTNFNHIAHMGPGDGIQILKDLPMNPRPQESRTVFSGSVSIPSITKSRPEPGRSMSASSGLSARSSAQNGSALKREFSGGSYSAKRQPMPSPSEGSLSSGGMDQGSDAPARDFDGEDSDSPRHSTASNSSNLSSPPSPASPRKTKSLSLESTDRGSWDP
T8 sequence (Q04759 whole entry): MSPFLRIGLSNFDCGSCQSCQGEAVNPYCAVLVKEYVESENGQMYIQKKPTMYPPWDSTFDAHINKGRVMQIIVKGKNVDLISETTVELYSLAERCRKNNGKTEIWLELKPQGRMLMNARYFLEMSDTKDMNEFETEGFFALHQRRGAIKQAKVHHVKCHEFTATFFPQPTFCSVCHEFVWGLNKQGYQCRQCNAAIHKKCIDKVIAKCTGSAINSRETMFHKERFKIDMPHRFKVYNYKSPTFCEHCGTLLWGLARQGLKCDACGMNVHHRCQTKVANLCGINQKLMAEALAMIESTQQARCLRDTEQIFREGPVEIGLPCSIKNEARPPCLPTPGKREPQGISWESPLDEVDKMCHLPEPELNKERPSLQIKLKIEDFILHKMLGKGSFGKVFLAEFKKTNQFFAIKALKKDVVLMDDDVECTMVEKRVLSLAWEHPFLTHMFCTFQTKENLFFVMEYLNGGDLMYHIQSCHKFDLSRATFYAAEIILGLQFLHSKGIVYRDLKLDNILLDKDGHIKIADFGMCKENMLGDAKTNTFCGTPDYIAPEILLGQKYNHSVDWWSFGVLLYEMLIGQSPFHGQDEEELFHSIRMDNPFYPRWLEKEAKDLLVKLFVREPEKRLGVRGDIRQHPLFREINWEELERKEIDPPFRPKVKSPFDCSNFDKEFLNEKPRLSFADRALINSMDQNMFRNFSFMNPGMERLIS

O=C(Nc1ccc(F)c(Nc2ccc3c(c2)CCCCC3=O)c1)c1cccc(F)c1 [Compound 109]
Residual activity ([1]; 1.0E-05 M): 92 % of control
Residual activity ([1]; 1.0E-06 M): 88 % of control
Residual activity ([2]; 1.0E-05 M): 91 % of control
Residual activity ([2]; 1.0E-06 M): 94 % of control
Residual activity ([3]; 1.0E-05 M): 96 % of control
Residual activity ([3]; 1.0E-06 M): 89 % of control
Residual activity ([4]; 1.0E-05 M): 100 % of control
Residual activity ([4]; 1.0E-06 M): 96 % of control
Residual activity ([5]; 1.0E-05 M): 110 % of control
Residual activity ([5]; 1.0E-06 M): 106 % of control
Residual activity ([6]; 1.0E-05 M): 79 % of control
Residual activity ([6]; 1.0E-06 M): 92 % of control
Residual activity ([7]; 1.0E-05 M): 94 % of control
Residual activity ([7]; 1.0E-06 M): 100 % of control
Residual activity ([8]; 1.0E-05 M): 84 % of control
Residual activity ([8]; 1.0E-06 M): 106 % of control
Residual activity ([9]; 1.0E-05 M): 75 % of control
Residual activity ([9]; 1.0E-06 M): 95 % of control
Residual activity ([10]; 1.0E-05 M): 81 % of control
Residual activity ([10]; 1.0E-06 M): 90 % of control
Residual activity ([11]; 1.0E-05 M): 52 % of control
Residual activity ([11]; 1.0E-06 M): 88 % of control
inhibition at 10 µM [12]: ≥ 50%
Residual activity ([12]; 1.0E-05 M): 2 % of control
Residual activity ([12]; 1.0E-06 M): 3 % of control
Residual activity ([13]; 1.0E-05 M): 78 % of control
Residual activity ([13]; 1.0E-06 M): 101 % of control
Residual activity ([14]; 1.0E-05 M): 88 % of control
Residual activity ([14]; 1.0E-06 M): 105 % of control
Residual activity ([15]; 1.0E-05 M): 116 % of control
Residual activity ([15]; 1.0E-06 M): 103 % of control

O=C(Cc1ccccc1)Nc1ccc(F)c(Nc2ccc3c(c2)CCCCC3=O)c1 [Compound 100]
Residual activity ([1]; 1.0E-05 M): 84 % of control
Residual activity ([1]; 1.0E-06 M): 88 % of control
Residual activity ([2]; 1.0E-05 M): 86 % of control
Residual activity ([2]; 1.0E-06 M): 94 % of control
Residual activity ([3]; 1.0E-05 M): 87 % of control
Residual activity ([3]; 1.0E-06 M): 102 % of control
Residual activity ([4]; 1.0E-05 M): 101 % of control
Residual activity ([4]; 1.0E-06 M): 99 % of control
Residual activity ([5]; 1.0E-05 M): 107 % of control
Residual activity ([5]; 1.0E-06 M): 112 % of control
Residual activity ([6]; 1.0E-05 M): 74 % of control
Residual activity ([6]; 1.0E-06 M): 88 % of control
Residual activity ([7]; 1.0E-05 M): 80 % of control
Residual activity ([7]; 1.0E-06 M): 110 % of control
Residual activity ([8]; 1.0E-05 M): 82 % of control
Residual activity ([8]; 1.0E-06 M): 104 % of control
Residual activity ([9]; 1.0E-05 M): 84 % of control
Residual activity ([9]; 1.0E-06 M): 95 % of control
Residual activity ([10]; 1.0E-05 M): 76 % of control
Residual activity ([10]; 1.0E-06 M): 100 % of control
Residual activity ([11]; 1.0E-05 M): 84 % of control
Residual activity ([11]; 1.0E-06 M): 93 % of control
inhibition at 10 µM [12]: ≥ 50%
Residual activity ([12]; 1.0E-05 M): 50 % of control
Residual activity ([12]; 1.0E-06 M): 71 % of control
Residual activity ([13]; 1.0E-05 M): 77 % of control
Residual activity ([13]; 1.0E-06 M): 121 % of control
Residual activity ([14]; 1.0E-05 M): 76 % of control
Residual activity ([14]; 1.0E-06 M): 111 % of control
Residual activity ([15]; 1.0E-05 M): 110 % of control
Residual activity ([15]; 1.0E-06 M): 114 % of control
